According to patent US20140017673A1, “METHOD FOR ENUMERATING EUKARYOTIC CELL MICRONUCLEI WITH AN EMPHASIS ON SIMULTANEOUSLY ACQUIRING CYTOTOXICITY AND MODE OF ACTION INFORMATION” (priority 2012, published 2014):
Structures can show the parent of a compound that is named as a salt. Where two headings read alike, the source gives them in different places.

How the values were obtained:
TK6 cells [1] = conditions: for Avg. % EMA+ / Avg. % M / Avg. % MN / Avg. % RS / Avg. M as % G2/M: human
TK6 cells [2] = experiment: Polyploidy as an aneugenic signature (flow cytometry, 96-well plate); conditions: 0.025 μg paclitaxel/ml, approximately 24 hrs
TK6 cells [3] = experiment: Treatment with demecolcine and assessment of anti-H3-P performance (metaphase events by flow cytometry); assay type: cell-based, human; conditions: 0.05 ng/ml, 5 hours
Description: TK6 cells were treated with 0 or 0.05 ng demecolcine/ml in T25 tissue culture flasks. At the start of treatment, cells were at 5×10^5/ml in a volume of 20 ml per flask. Flasks were incubated at 37° C., 5% CO2, and in a humid atmosphere. After 5 hours, flasks were removed and 1 ml aliquots were placed in to 15 ml centrifuge tubes. Cells were collected via centrifugation, and supernatants aspirated such that approximately 25 μl of supernatant remained per tube. Cells were gently resuspended with tapping. 300 μl “Lysis Solution 1” was added slowly to each tube (approximately 5 seconds per sample). […]
Samples were gently pipetted to resuspend the particles. […] SYTOX®-associated fluorescence emission was collected in the FITC channel, EMA-associated fluorescence was collected in the PerCP-Cy5 channel, and anti-H3-P-Alexa 647 associated fluorescence was collected in the APC channel. Events were triggered on FITC fluorescence. The flow cytometry gating strategy that was developed for this scoring application required events to meet each of several separate criteria before they were scored as nuclei, MN, chromatin debris, or metaphase chromosomes. […]
In this experiment, TK6 cells were treated with 0 or 0.05 ng/ml demecolcine, a metaphase blocking agent. […] However, the anti-H3-P associated fluorescence signal is able to differentiate between G2 and metaphase chromosomes. […]

COC(=O)Nc1nc2ccccc2[nH]1 [Carbendazim]
Avg. % EMA+ (TK6 cells [1]; 0.125 μg/ml): 2.3%
Avg. % M (TK6 cells [1]; 0.125 μg/ml): 1.6%
Avg. % MN (TK6 cells [1]; 0.125 μg/ml): 0.8%
Avg. % RS (TK6 cells [1]; 0.125 μg/ml): 96.9%
Avg. M as % G2/M (TK6 cells [1]; 0.125 μg/ml): 6.1%
Avg. % EMA+ (TK6 cells [1]; 0.5 μg/ml): 6.4%
Avg. % M (TK6 cells [1]; 0.5 μg/ml): 1.6%
Avg. % MN (TK6 cells [1]; 0.5 μg/ml): 3.8%
Avg. % RS (TK6 cells [1]; 0.5 μg/ml): 71.2%
Avg. M as % G2/M (TK6 cells [1]; 0.5 μg/ml): 10.3%
Avg. % EMA+ (TK6 cells [1]; 1 μg/ml): 10.0%
Avg. % M (TK6 cells [1]; 1 μg/ml): 5.6%
Avg. % MN (TK6 cells [1]; 1 μg/ml): 14.7%
Avg. % RS (TK6 cells [1]; 1 μg/ml): 49.7%
Avg. M as % G2/M (TK6 cells [1]; 1 μg/ml): 24.9%
Avg. % EMA+ (TK6 cells [1]; 2 μg/ml): 12.0%
Avg. % M (TK6 cells [1]; 2 μg/ml): 5.4%
Avg. % MN (TK6 cells [1]; 2 μg/ml): 22.3%
Avg. % RS (TK6 cells [1]; 2 μg/ml): 43.3%
Avg. M as % G2/M (TK6 cells [1]; 2 μg/ml): 18.5%

COc1cc2c(c(OC)c1OC)-c1ccc(OC)c(=O)cc1[C@@H](NC(C)=O)CC2 [Colchicine]
cytotoxicity (dose-dependent reductions to RS), FIG. 3 (TK6 cells [1]): cytotoxic
genotoxicity (increased MN observed), FIG. 3 dose-response (TK6 cells [1]): genotoxic

COc1cc([C@@H]2c3cc4c(cc3[C@@H](O[C@@H]3O[C@@H]5CO[C@@H](C)O[C@H]5[C@H](O)[C@H]3O)[C@H]3COC(=O)[C@H]23)OCO4)cc(OC)c1O [Etoposide]
Avg. % EMA+ (TK6 cells [1]; 0.005 μg/ml): 2.3%
Avg. % M (TK6 cells [1]; 0.005 μg/ml): 1.6%
Avg. % RS (TK6 cells [1]; 0.005 μg/ml): 83.3%
Avg. M as % G2/M (TK6 cells [1]; 0.005 μg/ml): 5.7%
Avg. % EMA+ (TK6 cells [1]; 0.01 μg/ml): 3.7%
Avg. % M (TK6 cells [1]; 0.01 μg/ml): 1.4%
Avg. % RS (TK6 cells [1]; 0.01 μg/ml): 69.6%
Avg. M as % G2/M (TK6 cells [1]; 0.01 μg/ml): 5.2%
Avg. % EMA+ (TK6 cells [1]; 0.02 μg/ml): 5.3%
Avg. % M (TK6 cells [1]; 0.02 μg/ml): 1.2%
Avg. % RS (TK6 cells [1]; 0.02 μg/ml): 52.6%
Avg. M as % G2/M (TK6 cells [1]; 0.02 μg/ml): 3.8%

COC1=CC(=O)C[C@@H](C)[C@]12Oc1c(Cl)c(OC)cc(OC)c1C2=O [Griseofulvin]
Avg. % EMA+ (TK6 cells [1]; 0.375 μg/ml): 3.0%
Avg. % M (TK6 cells [1]; 0.375 μg/ml): 1.9%
Avg. % RS (TK6 cells [1]; 0.375 μg/ml): 96.6%
Avg. M as % G2/M (TK6 cells [1]; 0.375 μg/ml): 6.0%
Avg. % EMA+ (TK6 cells [1]; 0.75 μg/ml): 2.6%
Avg. % M (TK6 cells [1]; 0.75 μg/ml): 1.8%
Avg. % RS (TK6 cells [1]; 0.75 μg/ml): 99.5%
Avg. M as % G2/M (TK6 cells [1]; 0.75 μg/ml): 5.8%
Avg. % EMA+ (TK6 cells [1]; 3 μg/ml): 8.2%
Avg. % M (TK6 cells [1]; 3 μg/ml): 3.0%
Avg. % RS (TK6 cells [1]; 3 μg/ml): 64.9%
Avg. M as % G2/M (TK6 cells [1]; 3 μg/ml): 19.4%
Avg. % EMA+ (TK6 cells [1]; 6 μg/ml): 13.5%
Avg. % M (TK6 cells [1]; 6 μg/ml): 5.8%
Avg. % RS (TK6 cells [1]; 6 μg/ml): 46.6%
Avg. M as % G2/M (TK6 cells [1]; 6 μg/ml): 26.4%

NC(=O)NO [HU, Hydroxyurea]
Avg. % EMA+ (TK6 cells [1]; 0.5 μg/ml): 2.4%
Avg. % M (TK6 cells [1]; 0.5 μg/ml): 1.6%
Avg. % MN (TK6 cells [1]; 0.5 μg/ml): 0.4%
Avg. % RS (TK6 cells [1]; 0.5 μg/ml): 100.9%
Avg. M as % G2/M (TK6 cells [1]; 0.5 μg/ml): 5.4%
Avg. % EMA+ (TK6 cells [1]; 0.9 μg/ml): 2.3%
Avg. % M (TK6 cells [1]; 0.9 μg/ml): 1.6%
Avg. % MN (TK6 cells [1]; 0.9 μg/ml): 0.5%
Avg. % RS (TK6 cells [1]; 0.9 μg/ml): 97.1%
Avg. M as % G2/M (TK6 cells [1]; 0.9 μg/ml): 5.9%
Avg. % EMA+ (TK6 cells [1]; 3.8 μg/ml): 5.8%
Avg. % M (TK6 cells [1]; 3.8 μg/ml): 1.7%
Avg. % MN (TK6 cells [1]; 3.8 μg/ml): 0.9%
Avg. % RS (TK6 cells [1]; 3.8 μg/ml): 65.7%
Avg. M as % G2/M (TK6 cells [1]; 3.8 μg/ml): 4.7%
Avg. % EMA+ (TK6 cells [1]; 7.5 μg/ml): 13.7%
Avg. % M (TK6 cells [1]; 7.5 μg/ml): 1.0%
Avg. % MN (TK6 cells [1]; 7.5 μg/ml): 1.9%
Avg. % RS (TK6 cells [1]; 7.5 μg/ml): 44.3%
Avg. M as % G2/M (TK6 cells [1]; 7.5 μg/ml): 3.9%

CC(=O)O[C@H]1C(=O)[C@@]2(C)[C@H]([C@H](OC(=O)c3ccccc3)[C@]3(O)C[C@H](OC(=O)[C@H](O)[C@@H](NC(=O)c4ccccc4)c4ccccc4)C(C)=C1C3(C)C)[C@]1(OC(C)=O)CO[C@@H]1C[C@@H]2O [Paclitaxel]
Avg. % EMA+ (TK6 cells [1]; 1.6 μg/ml): 3.7%
Avg. % M (TK6 cells [1]; 1.6 μg/ml): 1.7%
Avg. % MN (TK6 cells [1]; 1.6 μg/ml): 1.5%
Avg. M as % G2/M (TK6 cells [1]; 1.6 μg/ml): 7.1%
Avg. % EMA+ (TK6 cells [1]; 2.4 μg/ml): 7.3%
Avg. % M (TK6 cells [1]; 2.4 μg/ml): 2.2%
Avg. % MN (TK6 cells [1]; 2.4 μg/ml): 4.4%
Avg. M as % G2/M (TK6 cells [1]; 2.4 μg/ml): 9.7%
Avg. % EMA+ (TK6 cells [1]; 3.3 μg/ml): 10.0%
Avg. % M (TK6 cells [1]; 3.3 μg/ml): 3.4%
Avg. % MN (TK6 cells [1]; 3.3 μg/ml): 9.2%
Avg. M as % G2/M (TK6 cells [1]; 3.3 μg/ml): 12.2%
Avg. % EMA+ (TK6 cells [1]; 4.9 μg/ml): 12.3%
Avg. % M (TK6 cells [1]; 4.9 μg/ml): 4.4%
Avg. % MN (TK6 cells [1]; 4.9 μg/ml): 12.5%
Avg. M as % G2/M (TK6 cells [1]; 4.9 μg/ml): 11.3%
Avg. % EMA+ (TK6 cells [1]; 6.5 μg/ml): 13.2%
Avg. % M (TK6 cells [1]; 6.5 μg/ml): 4.6%
Avg. % MN (TK6 cells [1]; 6.5 μg/ml): 15.8%
Avg. M as % G2/M (TK6 cells [1]; 6.5 μg/ml): 10.2%
induction of polyploid nuclei (8n), FIG. 6 (TK6 cells [2]): robust induction

CC[C@]1(O)C[C@@H]2CN(CCc3c([nH]c4ccccc34)[C@@](C(=O)OC)(c3cc4c(cc3OC)N(C)[C@H]3[C@@](O)(C(=O)OC)[C@H](OC(C)=O)[C@]5(CC)C=CCN6CC[C@]43[C@@H]65)C2)C1 [Vinblastine sulfate]
Avg. % EMA+ (TK6 cells [1]; 0.1 μg/ml): 2.0%
Avg. % M (TK6 cells [1]; 0.1 μg/ml): 1.8%
Avg. % MN (TK6 cells [1]; 0.1 μg/ml): 0.7%
Avg. % RS (TK6 cells [1]; 0.1 μg/ml): 88.0%
Avg. M as % G2/M (TK6 cells [1]; 0.1 μg/ml): 8.6%
Avg. % EMA+ (TK6 cells [1]; 0.2 μg/ml): 2.7%
Avg. % M (TK6 cells [1]; 0.2 μg/ml): 1.5%
Avg. % MN (TK6 cells [1]; 0.2 μg/ml): 1.6%
Avg. % RS (TK6 cells [1]; 0.2 μg/ml): 79.6%
Avg. M as % G2/M (TK6 cells [1]; 0.2 μg/ml): 9.0%
Avg. % EMA+ (TK6 cells [1]; 0.4 μg/ml): 4.0%
Avg. % M (TK6 cells [1]; 0.4 μg/ml): 2.7%
Avg. % MN (TK6 cells [1]; 0.4 μg/ml): 3.3%
Avg. % RS (TK6 cells [1]; 0.4 μg/ml): 70.6%
Avg. M as % G2/M (TK6 cells [1]; 0.4 μg/ml): 17.1%
Avg. % EMA+ (TK6 cells [1]; 0.8 μg/ml): 5.8%
Avg. % M (TK6 cells [1]; 0.8 μg/ml): 7.2%
Avg. % MN (TK6 cells [1]; 0.8 μg/ml): 7.5%
Avg. % RS (TK6 cells [1]; 0.8 μg/ml): 48.0%
Avg. M as % G2/M (TK6 cells [1]; 0.8 μg/ml): 32.0%
Avg. % EMA+ (TK6 cells [1]; 1.6 μg/ml): 8.8%
Avg. % M (TK6 cells [1]; 1.6 μg/ml): 4.4%
Avg. % MN (TK6 cells [1]; 1.6 μg/ml): 12.6%
Avg. % RS (TK6 cells [1]; 1.6 μg/ml): 37.6%
Avg. M as % G2/M (TK6 cells [1]; 1.6 μg/ml): 14.1%

CC[C@]1(O)C[C@H]2CN(CCc3c([nH]c4ccccc34)[C@@](C(=O)OC)(c3cc4c(cc3OC)N(C=O)[C@H]3[C@@](O)(C(=O)OC)[C@H](OC(C)=O)[C@]5(CC)C=CCN6CC[C@]43[C@@H]65)C2)C1 [Vincristine sulfate]
Avg. % EMA+ (TK6 cells [1]; 0.125 μg/ml): 3.3%
Avg. % M (TK6 cells [1]; 0.125 μg/ml): 1.9%
Avg. % MN (TK6 cells [1]; 0.125 μg/ml): 0.6%
Avg. % RS (TK6 cells [1]; 0.125 μg/ml): 91.9%
Avg. M as % G2/M (TK6 cells [1]; 0.125 μg/ml): 7.1%
Avg. % EMA+ (TK6 cells [1]; 0.5 μg/ml): 5.1%
Avg. % M (TK6 cells [1]; 0.5 μg/ml): 2.1%
Avg. % MN (TK6 cells [1]; 0.5 μg/ml): 2.7%
Avg. % RS (TK6 cells [1]; 0.5 μg/ml): 72.1%
Avg. M as % G2/M (TK6 cells [1]; 0.5 μg/ml): 8.4%
Avg. % EMA+ (TK6 cells [1]; 1 μg/ml): 8.2%
Avg. % M (TK6 cells [1]; 1 μg/ml): 3.4%
Avg. % MN (TK6 cells [1]; 1 μg/ml): 7.9%
Avg. % RS (TK6 cells [1]; 1 μg/ml): 53.1%
Avg. M as % G2/M (TK6 cells [1]; 1 μg/ml): 13.5%

CN[C@H]1CCc2cc(OC)c(OC)c(OC)c2-c2ccc(OC)c(=O)cc21 [demecolcine, Demecolcine]
frequency of 4n anti-H3-P-positive events, FIG. 2 (TK6 cells [3]): greatly increased
